This is an account of results in US20220370440A1 (Lead Discovery Center GmbH, priority 2018, published 2022).

The target of one data set is EGFR T790ML858R (Homo sapiens, UniProt P00533, L858R/T790M). The data set can be described thus: EGFR T790ML858R Lance assay. In kind it is biochemical. Here is the method: (§1) Inhibition is indicated as […] [nM] (“−”=not measured). Compounds having an activity designated as “A” provided an IC50≤100 nM; compounds having an activity designated as “B” provided an 100 nM<IC50≤500 nM; compounds having an activity designated as “C” provided an 500 nM<IC50≤1000 nM; compounds having an activity designated as “D” provided an 1000 nM<IC50≤100000 nM; and compounds having an activity designated as “E” provided an IC50>10000 nM.

The next data set concerns the target T1, HER2 INS YVMA (Homo sapiens, UniProt P04626, INS775YVMA).
T1 construct: purchased DPF
The data set can be described thus: Lance Kinase Activity Assay, HER2 INS YVMA (Her2 Exon 20 INSYVMA Lance). In kind it is biochemical. Particulars: biochemical Lance assay. A digest of the protocol:
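Kinase phosphorylates a ULight-labelled peptide substrate; Eu anti-phospho antibody gives TR-FRET (ex 340 nm, em 665/615 nm). Compounds in 1:3 serial dilution over 8 steps, reaction started with ATP, 1 h at room temperature, stopped with EDTA-containing detection mix for 1 h. IC50 from sigmoidal dose-response curves.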

The target of data set [1] is EGFR Exon 20 INSNPH Ba/F3 (Homo sapiens, UniProt P00533, DUP771-773, cells depend on it). The data set is described as follows: EGFR Exon 20 INSNPH Ba/F3 CellTiter-Glo. In kind it is cell-based. The following applies: CellTiter-Glo, 72 h, read-out: EGFR Exon 20 INSNPH Ba/F3 CTG IC50. A digest of the protocol:
(§2)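 IC50 values, binned A (≤100 nM) through E (>10000 nM), come from luminescent ATP quantitation of viable mutant-driven Ba/F3 cells. Compound exposure lasted 72 h, starting 24 h post-seeding; DMSO and 10 μM staurosporine served as controls, Z′ ≥0.5 required.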

A further data set deals with A431. The data set is described as follows: A431 CellTiter-Glo. Type of data set: cell-based. The following applies: Homo sapiens, A-431; 72 h compound incubation; read-out: A431 CTG IC50. A digest of the protocol:
(§3)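 Cells seeded, after 24 h at 37° C/5% CO2 treated with compounds in DMSO at various concentrations for 72 h. Viability from ATP luminescence (CellTiter-Glo); DMSO and 10 μM Staurosporine as controls; IC50 from dose-response fit, plates accepted at Z′ ≥0.5.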
For orientation: Cellular ATP, detected with luciferase, serves as a proxy for viable cell number.

The target of a further data set is EGFR wt (Homo sapiens, UniProt P00533). The data set is described as follows: EGFR wt Lance assay. Type of data set: biochemical. The method, then: as §1
The nature of data set [2]: Metabolic stability in mouse liver microsomes without cofactor NADPH. In kind it is in vitro ADME. The following applies: 3 μM test compound, mouse liver microsomes, without NADPH, 50 min, 37° C., LC-MS/MS. An excerpt: There are two major groups of enzyme reactions catalyzed by drug metabolizing enzymes, the so called Phase I and Phase II reactions. The basic processes in phase I reactions are oxidation, reduction and/or hydrolysis mostly catalyzed by the cytochrome P450 (CYP) family of enzymes.
The following procedures describe the determination of the in vitro Phase I metabolic stability of test compounds using liver microsomes by measuring compound depletion over time. Test compound at the concentration of 3 μM was incubated with the liver microsomes from the mouse species and the experiment was performed without NADPH. The depletion of the test compounds was measured over time up to 50 minutes at 37° C. by LC-MS/MS. Different compounds were tested under these conditions for microsomal stability (see Table 5).
In general terms: Microsomes from liver hold many membrane-bound enzymes, among them those of drug oxidation.

The next data set concerns H1975. The data set can be described thus: H1975 CellTiter-Glo. Type of data set: cell-based. Particulars: Homo sapiens, NCI-H1975; 72 h compound incubation; read-out: H1975 CTG IC50. A digest of the protocol:
as §3

Data set [3] concerns the target Her2 Exon 20 INSYVMA Ba/F3 (Homo sapiens, UniProt P04626, DUP772-775, cells depend on it). The data set can be described thus: Her2 Exon 20 INSYVMA Ba/F3 CellTiter-Glo. Type of data set: cell-based. Particulars: CellTiter-Glo, 72 h, read-out: Her2 Exon 20 INSYVMA Ba/F3 CTG IC50. The gist of the method: as §2

Sequence of Her2 Exon 20 INSYVMA Ba/F3 (P04626 with tags, fused parts or gaps DUP772-775): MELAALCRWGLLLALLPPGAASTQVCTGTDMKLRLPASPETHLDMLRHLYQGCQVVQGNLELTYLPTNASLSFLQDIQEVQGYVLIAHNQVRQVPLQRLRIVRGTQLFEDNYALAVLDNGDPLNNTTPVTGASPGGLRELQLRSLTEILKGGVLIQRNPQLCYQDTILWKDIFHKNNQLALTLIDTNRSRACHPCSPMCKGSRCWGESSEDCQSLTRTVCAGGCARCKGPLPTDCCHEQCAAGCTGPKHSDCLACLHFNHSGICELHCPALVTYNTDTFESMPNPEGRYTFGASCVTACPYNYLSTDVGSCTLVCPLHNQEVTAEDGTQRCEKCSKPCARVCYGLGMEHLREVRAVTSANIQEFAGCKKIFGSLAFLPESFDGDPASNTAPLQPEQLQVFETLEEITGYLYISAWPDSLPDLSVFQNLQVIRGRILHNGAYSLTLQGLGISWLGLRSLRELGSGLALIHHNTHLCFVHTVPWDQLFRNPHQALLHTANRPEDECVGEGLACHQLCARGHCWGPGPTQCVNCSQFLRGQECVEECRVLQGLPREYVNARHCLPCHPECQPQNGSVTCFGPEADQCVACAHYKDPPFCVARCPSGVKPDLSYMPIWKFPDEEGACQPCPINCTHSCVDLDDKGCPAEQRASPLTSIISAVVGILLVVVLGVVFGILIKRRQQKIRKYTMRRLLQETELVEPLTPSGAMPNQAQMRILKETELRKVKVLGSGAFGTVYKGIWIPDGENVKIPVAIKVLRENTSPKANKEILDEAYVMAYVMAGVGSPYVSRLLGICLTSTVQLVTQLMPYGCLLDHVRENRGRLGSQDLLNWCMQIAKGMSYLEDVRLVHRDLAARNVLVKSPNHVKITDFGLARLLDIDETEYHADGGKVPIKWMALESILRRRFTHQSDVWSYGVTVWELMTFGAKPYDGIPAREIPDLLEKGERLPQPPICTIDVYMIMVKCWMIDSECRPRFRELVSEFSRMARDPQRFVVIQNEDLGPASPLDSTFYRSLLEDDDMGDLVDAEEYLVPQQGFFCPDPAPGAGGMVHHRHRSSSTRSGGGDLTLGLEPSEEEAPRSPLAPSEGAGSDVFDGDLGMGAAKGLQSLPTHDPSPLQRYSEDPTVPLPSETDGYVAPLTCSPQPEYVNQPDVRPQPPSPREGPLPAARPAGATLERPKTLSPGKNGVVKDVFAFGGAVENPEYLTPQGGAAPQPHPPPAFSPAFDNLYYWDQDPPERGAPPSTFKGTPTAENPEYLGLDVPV
T1 sequence (P04626 with tags, fused parts or gaps INS775YVMA): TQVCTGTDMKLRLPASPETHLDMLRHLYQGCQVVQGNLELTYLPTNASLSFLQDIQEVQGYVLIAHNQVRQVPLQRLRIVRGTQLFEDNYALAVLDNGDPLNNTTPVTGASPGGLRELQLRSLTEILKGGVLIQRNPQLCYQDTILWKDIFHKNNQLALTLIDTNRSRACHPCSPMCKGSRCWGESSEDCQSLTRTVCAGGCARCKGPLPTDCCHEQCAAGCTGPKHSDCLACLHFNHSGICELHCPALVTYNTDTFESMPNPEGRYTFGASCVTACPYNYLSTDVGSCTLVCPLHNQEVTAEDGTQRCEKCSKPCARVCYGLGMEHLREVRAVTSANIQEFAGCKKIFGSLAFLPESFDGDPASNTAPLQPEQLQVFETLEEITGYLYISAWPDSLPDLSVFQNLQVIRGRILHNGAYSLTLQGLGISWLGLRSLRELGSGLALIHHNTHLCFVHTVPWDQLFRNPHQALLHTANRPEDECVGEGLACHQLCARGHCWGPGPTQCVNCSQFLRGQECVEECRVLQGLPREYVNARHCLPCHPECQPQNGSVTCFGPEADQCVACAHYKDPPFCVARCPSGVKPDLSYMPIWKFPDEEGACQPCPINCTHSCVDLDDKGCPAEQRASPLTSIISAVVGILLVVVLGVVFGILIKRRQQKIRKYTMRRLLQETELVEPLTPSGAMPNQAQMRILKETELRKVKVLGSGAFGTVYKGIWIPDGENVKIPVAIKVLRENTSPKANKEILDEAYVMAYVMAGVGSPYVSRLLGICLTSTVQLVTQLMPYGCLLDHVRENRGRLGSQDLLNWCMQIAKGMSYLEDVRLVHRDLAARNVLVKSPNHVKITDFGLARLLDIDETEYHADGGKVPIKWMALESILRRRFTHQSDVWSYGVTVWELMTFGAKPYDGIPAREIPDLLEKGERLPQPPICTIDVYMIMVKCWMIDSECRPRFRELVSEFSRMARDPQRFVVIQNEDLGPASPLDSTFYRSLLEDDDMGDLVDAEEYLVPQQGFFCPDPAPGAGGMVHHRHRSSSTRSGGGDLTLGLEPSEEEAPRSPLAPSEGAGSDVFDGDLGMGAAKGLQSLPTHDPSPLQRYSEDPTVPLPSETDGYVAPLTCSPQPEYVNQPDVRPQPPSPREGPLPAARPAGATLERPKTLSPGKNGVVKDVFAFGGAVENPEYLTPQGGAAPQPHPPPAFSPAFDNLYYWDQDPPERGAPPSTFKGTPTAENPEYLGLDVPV
Sequence of EGFR Exon 20 INSNPH Ba/F3 (P00533 with tags, fused parts or gaps DUP771-773): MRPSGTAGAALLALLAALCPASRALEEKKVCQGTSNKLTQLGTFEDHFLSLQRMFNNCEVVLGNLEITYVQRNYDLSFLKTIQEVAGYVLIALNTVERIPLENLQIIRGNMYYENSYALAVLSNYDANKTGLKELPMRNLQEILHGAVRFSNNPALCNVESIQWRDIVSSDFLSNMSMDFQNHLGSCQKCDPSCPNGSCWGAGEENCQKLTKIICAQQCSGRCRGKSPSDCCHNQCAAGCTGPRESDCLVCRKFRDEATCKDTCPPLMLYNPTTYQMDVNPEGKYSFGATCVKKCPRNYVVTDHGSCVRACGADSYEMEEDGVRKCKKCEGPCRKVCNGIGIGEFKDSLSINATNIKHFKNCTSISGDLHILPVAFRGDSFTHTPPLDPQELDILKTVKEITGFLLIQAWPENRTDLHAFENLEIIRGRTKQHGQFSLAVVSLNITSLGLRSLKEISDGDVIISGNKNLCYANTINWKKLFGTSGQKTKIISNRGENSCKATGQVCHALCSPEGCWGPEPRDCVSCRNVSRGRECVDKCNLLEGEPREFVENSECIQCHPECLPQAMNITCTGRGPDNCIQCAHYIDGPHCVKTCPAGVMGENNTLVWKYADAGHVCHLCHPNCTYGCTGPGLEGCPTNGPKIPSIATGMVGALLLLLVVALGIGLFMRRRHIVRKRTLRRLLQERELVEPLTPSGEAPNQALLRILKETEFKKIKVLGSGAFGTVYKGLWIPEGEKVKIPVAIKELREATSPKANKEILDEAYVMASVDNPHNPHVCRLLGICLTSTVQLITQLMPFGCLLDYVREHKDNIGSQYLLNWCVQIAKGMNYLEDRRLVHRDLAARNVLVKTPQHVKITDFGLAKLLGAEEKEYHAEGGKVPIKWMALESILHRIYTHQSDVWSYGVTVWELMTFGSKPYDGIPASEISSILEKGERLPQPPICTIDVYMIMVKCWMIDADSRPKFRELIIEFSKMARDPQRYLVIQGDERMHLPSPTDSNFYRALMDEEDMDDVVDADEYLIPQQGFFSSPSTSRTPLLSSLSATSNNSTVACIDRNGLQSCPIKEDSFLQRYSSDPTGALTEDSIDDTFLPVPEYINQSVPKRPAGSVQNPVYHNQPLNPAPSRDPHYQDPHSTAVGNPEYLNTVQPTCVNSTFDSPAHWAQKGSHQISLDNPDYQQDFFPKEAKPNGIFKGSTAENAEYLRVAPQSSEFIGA
Sequence of EGFR T790ML858R (P00533 25-1210 T790M/L858R): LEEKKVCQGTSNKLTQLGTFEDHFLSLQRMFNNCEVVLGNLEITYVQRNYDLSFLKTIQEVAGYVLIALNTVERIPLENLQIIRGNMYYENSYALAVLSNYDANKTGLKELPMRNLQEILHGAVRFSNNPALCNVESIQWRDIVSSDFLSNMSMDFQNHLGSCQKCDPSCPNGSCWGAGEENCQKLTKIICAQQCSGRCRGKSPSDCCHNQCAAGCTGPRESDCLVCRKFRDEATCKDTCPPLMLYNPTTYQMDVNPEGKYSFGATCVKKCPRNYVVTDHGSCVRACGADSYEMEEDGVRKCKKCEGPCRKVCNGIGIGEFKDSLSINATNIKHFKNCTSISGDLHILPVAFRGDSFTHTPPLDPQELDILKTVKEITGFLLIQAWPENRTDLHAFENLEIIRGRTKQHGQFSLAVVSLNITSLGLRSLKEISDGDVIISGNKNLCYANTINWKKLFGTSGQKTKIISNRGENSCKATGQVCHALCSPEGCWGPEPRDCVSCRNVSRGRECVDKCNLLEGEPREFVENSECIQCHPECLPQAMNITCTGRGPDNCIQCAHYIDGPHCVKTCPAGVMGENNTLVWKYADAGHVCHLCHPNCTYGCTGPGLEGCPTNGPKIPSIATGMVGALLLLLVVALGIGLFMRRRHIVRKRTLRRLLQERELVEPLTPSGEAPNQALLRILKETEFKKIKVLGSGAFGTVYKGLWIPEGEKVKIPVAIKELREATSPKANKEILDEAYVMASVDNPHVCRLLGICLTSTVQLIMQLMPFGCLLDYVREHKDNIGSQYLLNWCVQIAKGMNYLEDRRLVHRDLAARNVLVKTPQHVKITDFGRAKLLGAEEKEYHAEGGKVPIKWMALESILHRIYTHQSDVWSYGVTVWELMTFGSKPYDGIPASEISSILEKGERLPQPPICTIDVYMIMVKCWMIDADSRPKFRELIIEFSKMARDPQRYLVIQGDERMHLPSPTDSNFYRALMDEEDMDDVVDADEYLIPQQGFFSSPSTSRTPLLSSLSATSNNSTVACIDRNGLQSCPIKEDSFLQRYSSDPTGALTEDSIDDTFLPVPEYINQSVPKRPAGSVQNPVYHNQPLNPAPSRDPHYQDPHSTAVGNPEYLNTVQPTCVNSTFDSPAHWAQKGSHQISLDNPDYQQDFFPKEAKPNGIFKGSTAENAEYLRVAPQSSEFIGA

As usually defined, the IC50 is the concentration that gives 50% inhibition. As for `C=CC(=O)Nc1cc(-c2c(-c3cccc(OCCN4CCCC4)c3)[nH]c3nccc(Cl)c23)ccc1C` [Example 37, N-(5-(4-chloro-2-(3-(2-(pyrrolidin-1-yl)ethoxy)phenyl)-1H-pyrrolo[2,3-b]pyridin-3-yl)-2-methylphenyl)acrylamide], the IC50 against EGFR T790ML858R was no more than 0.1 µM; against HER2 INS YVMA, no more than 0.1 µM; in the data set with A431, 0.1 to 0.5 µM; at EGFR wt, no more than 0.1 µM; in the data set on H1975, no more than 0.1 µM. The GI50 in data set [1] and in data set [3] was 0.1 to 0.5 µM throughout. Besides, the “Stability in presence of mouse liver microsomes without cofactor NADPH [% remaining after 50 min]” value in data set [2] was greater than 99 % remaining after 50 min.
In the case of `C=CC(=O)Nc1cc(-c2c(-c3ccc(OCCN4CCCC4)cc3)[nH]c3nccc(Cl)c23)ccc1C` [Example 38, N-(5-(4-chloro-2-(4-(2-(pyrrolidin-1-yl)ethoxy)phenyl)-1H-pyrrolo[2,3-b]pyridin-3-yl)-2-methylphenyl)acrylamide], the IC50 on EGFR T790ML858R is no more than 0.1 µM; at HER2 INS YVMA, no more than 0.1 µM; with A431, 0.1 to 0.5 µM; against EGFR wt, no more than 0.1 µM; with H1975, no more than 0.1 µM. The GI50 in data set [1] and in data set [3] was no more than 0.1 µM in each case. Moreover, the “Stability in presence of mouse liver microsomes without cofactor NADPH [% remaining after 50 min]” value in data set [2] is given as greater than 99 % remaining after 50 min.
As to `C=CC(=O)Nc1cc(-c2c(-c3cnc(N4CCN(C)CC4)nc3)[nH]c3nccc(Cl)c23)ccc1C` [Example 39, N-(5-(4-chloro-2-(2-(4-methylpiperazin-1-yl)pyrimidin-5-yl)-1H-pyrrolo[2,3-b]pyridin-3-yl)-2-methylphenyl)acrylamide], the IC50 against EGFR T790ML858R is no more than 0.1 µM; on HER2 INS YVMA it was 0.1 to 0.5 µM; with A431 it was 1 to 100 µM; on EGFR wt it was no more than 0.1 µM; in the data set on H1975, 0.1 to 0.5 µM. Further, the GI50 in data set [1] was in the range of 1 to 10 µM; in data set [3] it was 0.5 to 1 µM. Moreover, in data set [2], the “Stability in presence of mouse liver microsomes without cofactor NADPH [% remaining after 50 min]” value is on record as greater than 99 % remaining after 50 min.
As for `C=CC(=O)Nc1cc(-c2c(-c3ccc(N4CCN(CC)CC4)cc3)[nH]c3nccc(Cl)c23)ccc1C` [Example 40, N-(5-(4-chloro-2-(4-(4-ethylpiperazin-1-yl)phenyl)-1H-pyrrolo[2,3-b]pyridin-3-yl)-2-methylphenyl)acrylamide], the IC50 against EGFR T790ML858R is no more than 0.1 µM; against HER2 INS YVMA it was no more than 0.1 µM; in the data set with A431, 0.1 to 0.5 µM; at EGFR wt it was no more than 0.1 µM; in the data set on H1975 it was no more than 0.1 µM. In addition, the GI50 in data set [1] and in data set [3] was no more than 0.1 µM each time. Moreover, the “Stability in presence of mouse liver microsomes without cofactor NADPH [% remaining after 50 min]” value in data set [2] is greater than 99 % remaining after 50 min.
Turning to `C=CC(=O)Nc1cc(-c2c(-c3ccc(N4CCN(C(C)C)CC4)cc3)[nH]c3nccc(Cl)c23)ccc1C` [Example 41, N-(5-(4-chloro-2-(4-(4-isopropylpiperazin-1-yl)phenyl)-1H-pyrrolo[2,3-b]pyridin-3-yl)-2-methylphenyl)acrylamide], the IC50 is no more than 0.1 µM against EGFR T790ML858R; no more than 0.1 µM against HER2 INS YVMA; 0.1 to 0.5 µM in the data set on A431; no more than 0.1 µM against EGFR wt; no more than 0.1 µM in the data set with H1975. For the same compound, the GI50 in data set [1] and in data set [3] was no more than 0.1 µM throughout. Further, the “Stability in presence of mouse liver microsomes without cofactor NADPH [% remaining after 50 min]” value in data set [2] was greater than 99 % remaining after 50 min.
Regarding `C=CC(=O)Nc1cc(-c2c(-c3ccc(N4CCN(C)CC4)c(F)c3)[nH]c3nccc(Cl)c23)ccc1C` [Example 42, N-(5-(4-chloro-2-(3-fluoro-4-(4-methylpiperazin-1-yl)phenyl)-1H-pyrrolo[2,3-b]pyridin-3-yl)-2-methylphenyl)acrylamide], the IC50 is no more than 0.1 µM on EGFR T790ML858R; no more than 0.1 µM against HER2 INS YVMA; 0.1 to 0.5 µM in the data set on A431; no more than 0.1 µM against EGFR wt; no more than 0.1 µM in the data set on H1975. Also, the GI50 in data set [1] and in data set [3] was 0.1 to 0.5 µM each time. In addition, the “Stability in presence of mouse liver microsomes without cofactor NADPH [% remaining after 50 min]” value in data set [2] is recorded as greater than 99 % remaining after 50 min.
`C=CC(=O)Nc1cc(-c2c(-c3ccc(N(C)CCN(C)C)cc3)[nH]c3nccc(Cl)c23)ccc1C` [Example 43, N-(5-(4-chloro-2-(4-((2-(dimethylamino)ethyl)(methyl)amino)phenyl)-1H-pyrrolo[2,3-b]pyridin-3-yl)-2-methylphenyl)acrylamide]: the IC50 against EGFR T790ML858R was no more than 0.1 µM; at HER2 INS YVMA, no more than 0.1 µM; in the data set on A431 it was 0.1 to 0.5 µM; against EGFR wt, no more than 0.1 µM; with H1975 it was no more than 0.1 µM. Also, the GI50 in data set [1] and in data set [3] was no more than 0.1 µM in each case. The “Stability in presence of mouse liver microsomes without cofactor NADPH [% remaining after 50 min]” value in data set [2] is given as greater than 99 % remaining after 50 min.
With `C=CC(=O)N1CCc2ccc(-c3c(-c4ccc(N5CCN(C(C)C)CC5)cc4)[nH]c4nccc(Cl)c34)cc21` [Example 62, 1-(6-(4-chloro-2-(4-(4-isopropylpiperazin-1-yl)phenyl)-1H-pyrrolo[2,3-b]pyridin-3-yl)indolin-1-yl)prop-2-en-1-one], the IC50 against EGFR T790ML858R is no more than 0.1 µM; at HER2 INS YVMA, no more than 0.1 µM; in the data set on A431, 0.5 to 1 µM; at EGFR wt, no more than 0.1 µM; in the data set on H1975, no more than 0.1 µM. The GI50 in data set [1] and in data set [3] was 0.1 to 0.5 µM each time. Also, the “Stability in presence of mouse liver microsomes without cofactor NADPH [% remaining after 50 min]” value in data set [2] was greater than 99 % remaining after 50 min.
Take `C=CC(=O)N1CCc2ccc(-c3c(-c4ccc(N5CCN(CC)CC5)cc4)[nH]c4nccc(Cl)c34)cc21` [Example 63, 1-(6-(4-chloro-2-(4-(4-ethylpiperazin-1-yl)phenyl)-1H-pyrrolo[2,3-b]pyridin-3-yl)indolin-1-yl)prop-2-en-1-one]: the IC50 was no more than 0.1 µM against EGFR T790ML858R; no more than 0.1 µM against HER2 INS YVMA; 0.5 to 1 µM with A431; no more than 0.1 µM against EGFR wt; no more than 0.1 µM in the data set with H1975. Further, the GI50 in data set [1] and in data set [3] was 0.1 to 0.5 µM each time. Moreover, the “Stability in presence of mouse liver microsomes without cofactor NADPH [% remaining after 50 min]” value in data set [2] was greater than 99 % remaining after 50 min.
On to `C=CC(=O)N1CCc2ccc(-c3c(-c4cccc(OCCN5CCCC5)c4)[nH]c4nccc(Cl)c34)cc21` [Example 64, 1-(6-(4-chloro-2-(3-(2-(pyrrolidin-1-yl)ethoxy)phenyl)-1H-pyrrolo[2,3-b]pyridin-3-yl)indolin-1-yl)prop-2-en-1-one], for which the 50% inhibitory concentration (IC50) against EGFR T790ML858R is no more than 0.1 µM; against HER2 INS YVMA, no more than 0.1 µM; in the data set with A431, 0.5 to 1 µM; against EGFR wt it was no more than 0.1 µM; in the data set with H1975, no more than 0.1 µM. In addition, the GI50 in data set [1] and in data set [3] was 0.1 to 0.5 µM each time. The “Stability in presence of mouse liver microsomes without cofactor NADPH [% remaining after 50 min]” value in data set [2] is greater than 99 % remaining after 50 min.
`C=CC(=O)N1CCc2ccc(-c3c(-c4ccc(N(C)CCN(C)C)cc4)[nH]c4nccc(Cl)c34)cc21` [Example 65, 1-(6-(4-chloro-2-(4-((2-(dimethylamino)ethyl)(methyl)amino)phenyl)-1H-pyrrolo[2,3-b]pyridin-3-yl)indolin-1-yl)prop-2-en-1-one]: the IC50 on EGFR T790ML858R was no more than 0.1 µM; against HER2 INS YVMA it was no more than 0.1 µM; with A431, 0.5 to 1 µM; against EGFR wt, no more than 0.1 µM; in the data set with H1975 it was no more than 0.1 µM. In addition, the values for the GI50 in data set [1] and in data set [3] were 0.5 to 1 µM and 0.1 to 0.5 µM, respectively. In addition, the “Stability in presence of mouse liver microsomes without cofactor NADPH [% remaining after 50 min]” value in data set [2] is on record as greater than 99 % remaining after 50 min.
